The values below come from US12435060B2, “Acylamino bridged heterocyclic compound, and composition and application thereof” (BEIJING SCITECH-MQ PHARMACEUTICALS LIMITED, priority 2019, dated 2025).

SMILES strings stand for the structures. pIC50: −log10 of the molar value.

In this assay the test system is HT29 cells. Kind of assay: Inhibition of cell necrosis (CCK8 method), induced programmed necrosis of HT29 cells. Conditions: Homo sapiens, HT-29; rescue from necrosis induced by TNF-α 20 ng/mL, AT-406 1 μM, Z-VAD-FMK 20 μM; 16-20 hours; CCK-8, OD 450 nm. The class given is cell-based. A digest of the protocol:
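Rescue from programmed necrosis was scored by CCK-8 absorbance at 450 nm after 16-20 h of TNF-α (20 ng/mL), AT-406 (1 μM) and Z-VAD-FMK (20 μM) at 37 °C, 5% CO2. HT29 cells had received compound 30 min earlier across nine 4-fold dilutions (top 25000 nM final). IC50 came from % inhibition relative to uninduced and induced-only wells.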
With `Cc1ccc(OCCO)cc1-c1ccnc(NC(=O)c2nnc(Cc3ccccc3)[nH]2)c1` [Example 125, 5-benzyl-N-(4-(5-(2-hydroxyethoxy)-2-methylphenyl)pyridin-2-yl)-4H-1,2,4-triazole-3-carboxamide], the pIC50 is 6.00 to 7.00. For `COCCOc1ccccc1-c1ccnc(NC(=O)c2nnc(Cc3ccccc3)[nH]2)c1` [Example 126, 5-benzyl-N-(4-(2-(2-methoxyethoxy)phenyl)pyridin-2-yl)-4H-1,2,4-triazole-3-carboxamide] the value was 5.00 to 6.00; for `COCCOc1ccc(C)c(-c2ccnc(NC(=O)c3nnc(Cc4ccccc4)[nH]3)c2)c1` [Example 128, 5-benzyl-N-(4-(5-(2-methoxyethoxy)-2-methylphenyl)pyridin-2-yl)-4H-1,2,4-triazole-3-carboxamide], no less than 7.00. The same measure for `COCCOc1cnc(C)c(-c2ccnc(NC(=O)c3nnc(Cc4ccccc4)[nH]3)c2)c1` [Example 129, 5-benzyl-N-(5-(2-methoxyethoxy)-2-methyl-[3,4′-bipyridin]-2′-yl)-4H-1,2,4-triazole-3-carboxamide]: 6.00 to 7.00; for `COCCOc1ccc(C)c(-c2ccnc(NC(=O)c3nnc(Cc4ccccc4)s3)c2)c1` [Example 130, 5-benzyl-N-(4-(5-(2-methoxyethoxy)-2-methylphenyl)pyridin-2-yl)-1,3,4-thiodiazol-2-carboxamide]: less than 5.00; for `CCOCCOc1ccc(C)c(-c2ccnc(NC(=O)c3nnc(Cc4ccccc4)[nH]3)c2)c1` [Example 131, 5-benzyl-N-(4-(5-(2-ethoxyethoxy)-2-methylphenyl)pyridin-2-yl)-4H-1,2,4-triazole-3-carboxamide]: no less than 7.00. For `Cc1ncc(OCCOC(C)C)cc1-c1ccnc(NC(=O)c2nnc(Cc3ccccc3)[nH]2)c1` [Example 132, 5-benzyl-N-(5-(2-isopropoxyethoxy)-2-methyl-[3,4′-dipyridine]-2′-yl)-4H-1,2,4-triazole-3-carboxamide] the value was 6.00 to 7.00; for `Cc1ccc(OCCOC(C)C)cc1-c1ccnc(NC(=O)c2nnc(Cc3ccccc3)[nH]2)c1` [Example 133, 5-benzyl-N-(4-(5-(2-isopropoxyethoxy)-2-methylphenyl)pyridin-2-yl)-4H-1,2,4-triazole-3-carboxamide], no less than 7.00; for `Cc1ccc(OCCN(C)C)cc1-c1ccnc(NC(=O)c2nnc(Cc3ccccc3)[nH]2)c1` [Example 134, 5-benzyl-N-(4-(5-(2-(dimethylamino)ethoxy)-2-methylphenyl)pyridin-2-yl)-4H-1,2,4-triazole-3-carboxamide], 6.00 to 7.00.

As for `CCN(CC)CCOc1ccc(C)c(-c2ccnc(NC(=O)c3nnc(Cc4ccccc4)[nH]3)c2)c1` [Example 135, 5-benzyl-N-(4-(5-(2-(diethylamino)ethoxy)-2-methylphenyl)pyridin-2-yl)-4H-1,2,4-triazole-3-carboxamide], the pIC50 is no less than 7.00. In turn, `Cc1ccc(OCCN2CCN(C)CC2)cc1-c1ccnc(NC(=O)c2nnc(Cc3ccccc3)[nH]2)c1` [Example 136, 5-benzyl-N-(4-(2-methyl-5-(2-(4-methylpiperazin-1-yl)ethoxy)phenyl)pyridin-2-yl)-4H-1,2,4-triazole-3-carboxamide] had a pIC50 of no less than 7.00.

`Cc1ccc(OCCC2OCCO2)cc1-c1ccnc(NC(=O)c2nnc(Cc3ccccc3)[nH]2)c1` [Example 137, N-(4-(5-(2-(1,3-dioxolan-2-yl)ethoxy)-2-methylphenyl)pyridin-2-yl)-5-benzyl-4H-1,2,4-triazole-3-carboxamide]: the pIC50 is no less than 7.00.

With `Cc1ccc(OCCCC(F)(F)F)cc1-c1ccnc(NC(=O)c2nnc(Cc3ccccc3)[nH]2)c1` [Example 138, 5-benzyl-N-(4-(2-methyl-5-(4,4,4-trifluorobutoxy)phenyl)pyridin-2-yl)-4H-1,2,4-triazole-3-carboxamide], the pIC50 was no less than 7.00. The same measure for `Cc1ccc(OCCCN(C)C)cc1-c1ccnc(NC(=O)c2nnc(Cc3ccccc3)[nH]2)c1` [Example 139, 5-benzyl-N-(4-(5-(3-(dimethylamino)propoxy)-2-methylphenyl)pyridin-2-yl)-4H-1,2,4-triazole-3-carboxamide]: less than 5.00; for `Cc1ccc(OCCCO)cc1-c1ccnc(NC(=O)c2nnc(Cc3ccccc3)[nH]2)c1` [Example 140, 5-benzyl-N-(4-(5-(3-hydroxylpropoxy)-2-methylphenyl)pyridin-2-yl)-4H-1,2,4-triazole-3-carboxamide]: no less than 7.00.

In turn, `COCCCOc1ccc(C)c(-c2ccnc(NC(=O)c3nnc(Cc4ccccc4)[nH]3)c2)c1` [Example 141, 5-benzyl-N-(4-(5-(3-methoxypropoxy)-2-methylphenyl)pyridin-2-yl)-4H-1,2,4-triazole-3-carboxamide] gave a pIC50 of no less than 7.00. The same measure for `COCCCOc1ccc(C)c(-c2ccnc(NC(=O)c3nnc(C(C)c4ccccc4)[nH]3)c2)c1` (stereo not drawn) [Example 142, N-(4-(5-(3-methoxypropoxy)-2-methylphenyl)pyridin-2-yl)-5-(1-phenylethyl)-4H-1,2,4-triazole-3-carboxamide]: 6.00 to 7.00.

The molecule `COCCCOc1ccc(C)c(-c2ccnc(NC(=O)c3nnc(C(C)c4ccccc4)o3)c2)c1` (stereo not drawn) [Example 143, N-(4-(5-(3-methoxypropoxy)-2-methylphenyl)pyridin-2-yl)-5-(1-phenylethyl)-1,3,4-oxadiazol-2-carboxamide] gave a pIC50 of 6.00 to 7.00. Take `COCCCOc1ccc(C)c(-c2ccnc(NC(=O)c3nnc(CC4CCCC4)[nH]3)c2)c1` [Example 144, 5-(cyclopentylmethyl)-N-(4-(5-(3-methoxypropoxy)-2-methylphenyl)pyridin-2-yl)-4H-1,2,4-triazole-3-carboxamide]: the pIC50 was no less than 7.00. For `COCCCOc1ccc(C)c(-c2ccnc(NC(=O)c3nnc(CC4CCCCC4)[nH]3)c2)c1` [Example 145, 5-(cyclohexylmethyl)-N-(4-(5-(3-methoxypropoxy)-2-methylphenyl)pyridin-2-yl)-4H-1,2,4-triazole-3-carboxamide] the value was no less than 7.00; for `COCCCOc1ccc(C)c(-c2ccnc(NC(=O)c3nnc(Cc4ccccc4)s3)c2)c1` [Example 146, 5-benzyl-N-(4-(5-(3-methoxypropoxy)-2-methylphenyl)pyridin-2-yl)-1,3,4-thiodiazol-2-carboxamide], 5.00 to 6.00.

In turn, `CCOCCCOc1ccc(C)c(-c2ccnc(NC(=O)c3nnc(Cc4ccccc4)[nH]3)c2)c1` [Example 147, 5-benzyl-N-(4-(5-(3-ethoxypropoxy)-2-methylphenyl)pyridin-2-yl)-4H-1,2,4-triazole-3-carboxamide] showed a pIC50 of no less than 7.00. The same measure for `Cc1ccc(OCCCC#N)cc1-c1ccnc(NC(=O)c2nnc(Cc3ccccc3)[nH]2)c1` [Example 148, 5-benzyl-N-(4-(5-(3-cyanopropoxy)-2-methylphenyl)pyridin-2-yl)-4H-1,2,4-triazole-3-carboxamide]: no less than 7.00; for `C=CCCCOc1ccc(C)c(-c2ccnc(NC(=O)c3nnc(Cc4ccccc4)[nH]3)c2)c1` [Example 149, 5-benzyl-N-(4-(2-methyl-5-(pent-4-en-1-yloxy)phenyl)pyridin-2-yl)-4H-1,2,4-triazole-3-carboxamide]: no less than 7.00; for `CSCCCCOc1ccc(C)c(-c2ccnc(NC(=O)c3nnc(Cc4ccccc4)[nH]3)c2)c1` [Example 150, 5-benzyl-N-(4-(2-methyl-5-(4-(methylthio)butoxy)phenyl)pyridin-2-yl)-4H-1,2,4-triazole-3-carboxamide]: no less than 7.00.

The molecule `Cc1ccc(OCCCCO)cc1-c1ccnc(NC(=O)c2nnc(Cc3ccccc3)[nH]2)c1` [Example 151, 5-benzyl-N-(4-(5-(4-hydroxybutoxy)-2-methylphenyl)pyridin-2-yl)-4H-1,2,4-triazole-3-carboxamide] gave a pIC50 of no less than 7.00.

Take `COCCCCOc1ccc(C)c(-c2ccnc(NC(=O)c3nnc(Cc4ccccc4)[nH]3)c2)c1` [Example 152, 5-benzyl-N-(4-(5-(4-methoxybutoxy)-2-methylphenyl)pyridin-2-yl)-4H-1,2,4-triazole-3-carboxamide]: the pIC50 was no less than 7.00. The same measure for `Cc1ccc(OCCCCCO)cc1-c1ccnc(NC(=O)c2nnc(Cc3ccccc3)[nH]2)c1` [Example 153, 5-benzyl-N-(4-(5-((5-hydroxylpentyl)oxy)-2-methylphenyl)pyridin-2-yl)-4H-1,2,4-triazole-3-carboxamide]: no less than 7.00; for `Cc1ccc(OCCCCCCCCO)cc1-c1ccnc(NC(=O)c2nnc(Cc3ccccc3)[nH]2)c1` [Example 154, 5-benzyl-N-(4-(5-((8-hydroxyoctyl)oxy)-2-methylphenyl)pyridin-2-yl)-4H-1,2,4-triazole-3-carboxamide]: no less than 7.00. For `Cc1ccc(OC2CC2)cc1-c1ccnc(NC(=O)c2nnc(Cc3ccccc3)[nH]2)c1` [Example 155, 5-benzyl-N-(4-(5-cyclopropoxy-2-methylphenyl)pyridin-2-yl)-4H-1,2,4-triazole-3-carboxamide] the value was 6.00 to 7.00; for `Cc1ccc(OC2CCC2)cc1-c1ccnc(NC(=O)c2nnc(Cc3ccccc3)[nH]2)c1` [Example 156, 5-benzyl-N-(4-(5-cyclobutoxy-2-methylphenyl)pyridin-2-yl)-4H-1,2,4-triazole-3-carboxamide], 6.00 to 7.00; for `Cc1ccc(OCCCC(N)=O)cc1-c1ccnc(NC(=O)c2nnc(Cc3ccccc3)[nH]2)c1` [Example 157, N-(4-(5-(4-amino-4-oxobutoxy)-2-methylphenyl)pyridin-2-yl)-5-benzyl-4H-1,2,4-triazole-3-carboxamide], 6.00 to 7.00.

As to `Cc1ccc(C(N)=O)cc1-c1ccnc(NC(=O)c2nnc(Cc3ccccc3)[nH]2)c1` [Example 158, 5-benzyl-N-(4-(5-carbamoyl-2-methylphenyl)pyridin-2-yl)-4H-1,2,4-triazole-3-carboxamide], the pIC50 is 5.00 to 6.00.
